Assay results taken from patent publication US20210309645A1, “pH DEPENDENT PHOTOACOUSTIC COMPOUNDS AND APPLICATIONS THEREOF” (Wake Forest University, priority 2018, published 2021).

How the values were obtained:
[1] = in ethanol; cited from earlier work
[2] = test system: orthotopic pancreatic tumor; experiment: MSOT imaging of compound accumulation in mice with orthotopic pancreatic tumor; assay type: in vivo; conditions: SCID mice, iv tail vein, 100 nM in PBS pH 7.4, 100 μl; after 2 h
Experimental: Preliminary evaluation of compound (Ia) accumulation within mice was conducted. A matrigel plug containing surgicel mesh and fibroblast was injected subcutaneously to stimulate non-malignant fibrotic tissue two weeks prior to orthotopic tumor implantation in 3 SCID mice. Mice were anesthesized using 1.5% isoflurane and a gas mixture of 0.9 L medical air and 0.1 L 02 to detect tissue hypoxia. Because areas of tissue hypoxia will also have acidic extracellular pH, tissue hypoxia served as an additional acidic extracellular pH (pHe) control. One week post tumor implantation mice were imaged using MSOT to obtain a baseline prior to iv tail vein injection of compound (Ia) at (100 nM in PBS pH 7.4) in 100 μl total volume.

[3] = UV-Vis absorbance spectra in variable pH PBS buffer solutions; assay type: physicochemical; conditions: pH 7.4, 7.0, 6.8, 6.5
Experimental: Substantial differences were observed between pH 7.4 and pH 7.0 (B), pH 7.0 and 6.8 (C). A small additional peak was observed between pH 6.8 and 6.5 (D). This initial identification of the ability of compound (Ia) to modulate absorbance spectra was solely dependent upon variation in pH as changes in absorbance in various light conditions, various levels of 02, and various cell culture medium (with and without phenol red) (data not shown) were also tested.

[4] = Quantum yield and spectral properties in buffered solutions, by comparison with rhodamine; assay type: physicochemical; conditions: for ΦF (quantum yield): vs rhodamine
Experimental: The quantum yield of compound (Ia) under acidic (pH 6.0), neutral (7.0), and basic (pH 8.0) buffered solutions were calculated by comparison with rhodamine (ΦR=0.95 in ethanol), where ΦF is the quantum yield.

[5] = Absorption spectra in the presence of ions and reactive cellular products at pH 7.4; assay type: physicochemical; conditions: Na+, K+, Ca2+, Fe2+, Mg2+, Zn2+, Fe3+ chloride salts, H2O2, GSH, cysteine
Experimental: Since compound (Ia) was designed to spectrally alter based upon H^+ protonation, compound (Ia) was also evaluated in the presence of de-ionized water, phosphate buffer saline, and/or other ions which are present in living organisms (Na^+, K^+, Ca^2+, Fe^2+, Mg^2+, Zn^2+, Fe^3+ and Fe^2+ as chloride salts), and other highly reactive cellular products (H2O2, glutathione (GSH), cysteine) at pH 7.4. […] With the establishment that modulation of spectral absorption corresponded to H^+ without influence of other ions, compound (Ia) was further evaluated as a potential optoacoustic agent.

[6] = pH 6.0 (acidic) buffered solution
[7] = pH 7.0 (neutral) buffered solution
[8] = pH 8.0 (basic) buffered solution

Compound	ΦR (quantum yield of reference) [1]	accumulation detected by MSOT [2]	pH dependence of absorbance spectra (UV-Vis) [3]	Absmax [4, 6] [nm]	Emmax [4, 6] [nm]	ΦF (quantum yield) [4, 6]	Absmax [4, 7] [nm]	Emmax [4, 7] [nm]	ΦF (quantum yield) [4, 7]	Absmax [4, 8] [nm]	Emmax [4, 8] [nm]	ΦF (quantum yield) [4, 8]	change of absorption spectra in the presence of other ions and reactive cellular products [5]
rhodamine	0.95												
C[N+]1=C(/C=C/C2=C3Oc4cc(O)ccc4C=C3CCC2)C(C)(C)c2c1ccc1c2ccc2cc(Cl)ccc21 [compound (Ia)]		Pancreatic tumor specific accumulation	absorbance spectra modulation corresponding with variable pH PBS buffer solutions	652	694	0.18	704	745	0.22	765	810	0.23	did not significantly alter
